Assay results taken from patent US9382254B2, “Compounds and pharmaceutical compositions thereof for the treatment of cystic fibrosis” (Galapagos NV, priority 2013, dated 2016).

Key:
Assay type in all cases: cell-based
CFTR ΔF508 mutant [1] = molecular target: T1, CFTR ΔF508 mutant (Homo sapiens, UniProt P13569, DEL508-508); test: YFP-halide influx assay for the CFTR-ΔF508 mutation, PBS buffer (96 well); settings: CFBE41o- cells, forskolin 10.67 μM
T1 construct: expressed in transfected cells; host or cells: CFBE41o- (adenoviral transduction)
Outline: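 CFBE41o- cells were adenovirally transduced with CFTR ΔF508 and YFP H148Q/I152L, then incubated 24 h at 27 °C or with a CFTR modulator at 37 °C. I⁻-induced fluorescence quenching was recorded over 7 s after injection; response expressed as 1−F/F0, with EC50 from concentration plots.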

CFTR ΔF508 mutant [2] = molecular target: T1, CFTR ΔF508 mutant; test: YFP-halide influx assay for the CFTR-ΔF508 mutation, gluconate buffer; settings: CFBE41o- cells, forskolin 10.67 μM
Outline: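 CFBE41o- cells adenovirally transduced with CFTR ΔF508 and YFP H148Q/I152L, then held 24 h at 27 °C or treated with CFTR modulator 24 h at 37 °C. I− quenching recorded for 7 s after injection; activity as 1-F/F0, EC50 from concentration plot.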

CFTR ΔF508 mutant [3] = molecular target: T1, CFTR ΔF508 mutant; test: YFP-halide influx assay for the CFTR-ΔF508 mutation (384 well, FDSS/μCell); settings: CFBE41o- cells, CFTR-ΔF508, 1×D-PBS, fluorescence after 36 seconds
Outline: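 Potentiator read-out as 1−F/F0, F taken 36 s after iodide addition, EC50 fitted against compound concentration. Cells: CFBE41o- expressing ΔF508 CFTR plus halide-sensitive YFP via adenovirus, rescued by 27 °C for 24 h or 24 h modulator at 37 °C.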

CFTR G551D mutant = molecular target: T2, CFTR G551D mutant (Homo sapiens, UniProt P13569, G551D); test: YFP-halide influx assay for the CFTR-G551D mutation; settings: HEK293 cells, forskolin 10.67 μM
T2 construct: expressed in transfected cells; host or cells: HEK293 (reverse transfection with plasmid)
Outline: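 HEK293 cells reverse-transfected with CFTR G551D and YFP H148Q/I152L/F47L halide sensor, expressed 24 h at 37 °C. Iodide-induced fluorescence quench recorded 7 s after I− injection; response = 1−F/F0, with EC50 from plot against compound concentration.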

T1 sequence (P13569 with tags, fused parts or gaps DEL508-508): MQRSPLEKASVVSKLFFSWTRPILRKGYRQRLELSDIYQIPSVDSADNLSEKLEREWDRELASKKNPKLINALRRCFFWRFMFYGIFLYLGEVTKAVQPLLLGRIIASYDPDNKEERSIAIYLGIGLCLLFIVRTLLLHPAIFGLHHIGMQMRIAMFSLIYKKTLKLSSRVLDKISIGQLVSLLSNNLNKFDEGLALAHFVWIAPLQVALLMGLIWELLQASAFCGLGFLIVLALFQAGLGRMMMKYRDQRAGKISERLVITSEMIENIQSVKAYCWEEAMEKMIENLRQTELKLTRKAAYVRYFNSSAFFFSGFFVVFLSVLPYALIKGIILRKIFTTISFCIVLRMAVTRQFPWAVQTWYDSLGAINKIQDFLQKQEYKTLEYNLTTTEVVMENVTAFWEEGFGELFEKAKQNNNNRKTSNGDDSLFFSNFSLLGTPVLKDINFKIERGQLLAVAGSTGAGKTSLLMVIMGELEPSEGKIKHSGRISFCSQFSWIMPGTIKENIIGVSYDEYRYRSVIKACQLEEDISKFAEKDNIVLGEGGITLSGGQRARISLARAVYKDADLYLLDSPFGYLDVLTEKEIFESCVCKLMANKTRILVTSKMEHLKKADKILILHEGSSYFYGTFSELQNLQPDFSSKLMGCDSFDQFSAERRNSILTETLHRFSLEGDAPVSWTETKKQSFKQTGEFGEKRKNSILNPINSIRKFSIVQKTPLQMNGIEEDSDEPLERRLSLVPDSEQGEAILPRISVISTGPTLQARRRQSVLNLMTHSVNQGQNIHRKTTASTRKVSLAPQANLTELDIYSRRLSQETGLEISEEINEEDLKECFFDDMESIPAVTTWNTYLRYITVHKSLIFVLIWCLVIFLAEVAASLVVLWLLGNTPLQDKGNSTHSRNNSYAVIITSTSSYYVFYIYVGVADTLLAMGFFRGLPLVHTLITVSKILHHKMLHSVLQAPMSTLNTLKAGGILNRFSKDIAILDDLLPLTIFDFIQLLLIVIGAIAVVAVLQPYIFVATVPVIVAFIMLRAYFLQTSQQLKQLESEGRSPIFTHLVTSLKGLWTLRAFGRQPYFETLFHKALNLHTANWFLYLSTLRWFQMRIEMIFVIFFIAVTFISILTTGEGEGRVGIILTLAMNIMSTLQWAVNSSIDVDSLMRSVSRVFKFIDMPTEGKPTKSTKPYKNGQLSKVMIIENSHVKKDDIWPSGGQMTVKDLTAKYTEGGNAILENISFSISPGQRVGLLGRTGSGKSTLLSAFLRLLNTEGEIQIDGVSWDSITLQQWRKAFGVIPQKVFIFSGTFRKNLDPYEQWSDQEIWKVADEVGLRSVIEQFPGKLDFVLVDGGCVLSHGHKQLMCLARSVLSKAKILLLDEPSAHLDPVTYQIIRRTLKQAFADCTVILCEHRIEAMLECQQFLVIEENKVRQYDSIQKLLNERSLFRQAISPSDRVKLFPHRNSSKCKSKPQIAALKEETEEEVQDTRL
T2 sequence (P13569 whole entry G551D): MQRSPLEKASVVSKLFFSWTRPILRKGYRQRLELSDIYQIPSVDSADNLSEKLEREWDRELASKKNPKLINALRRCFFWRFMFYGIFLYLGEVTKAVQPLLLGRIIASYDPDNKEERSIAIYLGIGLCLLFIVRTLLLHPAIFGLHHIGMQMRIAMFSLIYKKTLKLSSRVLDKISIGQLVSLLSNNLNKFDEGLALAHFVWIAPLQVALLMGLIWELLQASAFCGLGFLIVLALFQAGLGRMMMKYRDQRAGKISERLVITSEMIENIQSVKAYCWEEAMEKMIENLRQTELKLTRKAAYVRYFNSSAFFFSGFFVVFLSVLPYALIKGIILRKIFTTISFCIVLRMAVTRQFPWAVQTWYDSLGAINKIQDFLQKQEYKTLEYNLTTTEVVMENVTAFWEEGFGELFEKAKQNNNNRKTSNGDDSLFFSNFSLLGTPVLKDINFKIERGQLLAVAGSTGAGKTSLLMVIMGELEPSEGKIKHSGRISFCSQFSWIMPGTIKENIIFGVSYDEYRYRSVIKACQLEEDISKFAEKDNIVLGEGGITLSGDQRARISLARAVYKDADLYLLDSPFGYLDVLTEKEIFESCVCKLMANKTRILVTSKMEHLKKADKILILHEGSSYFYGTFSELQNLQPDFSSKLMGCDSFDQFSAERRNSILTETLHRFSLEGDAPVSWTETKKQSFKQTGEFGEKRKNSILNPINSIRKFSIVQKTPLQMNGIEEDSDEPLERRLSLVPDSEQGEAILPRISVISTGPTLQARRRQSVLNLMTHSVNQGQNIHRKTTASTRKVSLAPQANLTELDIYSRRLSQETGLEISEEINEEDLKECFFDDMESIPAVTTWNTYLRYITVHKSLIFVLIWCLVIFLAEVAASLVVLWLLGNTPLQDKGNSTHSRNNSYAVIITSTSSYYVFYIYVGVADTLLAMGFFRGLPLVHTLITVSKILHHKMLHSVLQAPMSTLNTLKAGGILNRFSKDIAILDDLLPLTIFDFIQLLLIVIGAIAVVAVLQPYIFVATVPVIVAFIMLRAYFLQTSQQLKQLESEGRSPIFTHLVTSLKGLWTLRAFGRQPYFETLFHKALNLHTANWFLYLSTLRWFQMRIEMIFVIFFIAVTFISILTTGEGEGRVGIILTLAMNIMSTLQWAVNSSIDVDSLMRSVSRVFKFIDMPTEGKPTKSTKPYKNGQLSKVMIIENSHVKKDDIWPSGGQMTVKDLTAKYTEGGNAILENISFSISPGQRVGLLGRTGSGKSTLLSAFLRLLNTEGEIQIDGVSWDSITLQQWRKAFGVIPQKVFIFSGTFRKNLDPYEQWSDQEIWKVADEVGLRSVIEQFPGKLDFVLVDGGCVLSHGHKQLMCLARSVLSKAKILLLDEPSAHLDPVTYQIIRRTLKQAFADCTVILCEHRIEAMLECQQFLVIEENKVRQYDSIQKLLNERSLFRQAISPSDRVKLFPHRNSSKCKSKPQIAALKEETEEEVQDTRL

`NC(=O)c1cc(S(=O)(=O)N2CCOCC2)sc1NC(=O)c1c(O)cc(F)cc1F` [Compound 212, 2-(2,4-difluoro-6-hydroxybenzamido)-5-(morpholinosulfonyl) thiophene-3-carboxamide] gave an EC50 (CFTR ΔF508 mutant [1]) of 70.3 nM and an EC50 (CFTR ΔF508 mutant [2]) of 184 nM.

`CC(C)c1cc(C(=O)Nc2sc(S(=O)(=O)N3CCC(F)(F)CC3)cc2C(N)=O)c(O)c(C(C)C)c1` [Compound 215, 5-(4,4-difluoropiperidin-1-ylsulfonyl)-2-(2-hydroxy-3,5-diisopropylbenzamido) thiophene-3-carboxamide] was tested, and the EC50 (CFTR ΔF508 mutant [1]) was 862 nM and the EC50 (CFTR ΔF508 mutant [2]) was 292 nM.

Work on `Cc1cccc(C(=O)Nc2sc(S(=O)(=O)N3CCOCC3)cc2C(N)=O)c1O` [Compound 216, 2-(2-hydroxy-3-methylbenzamido)-5-(morpholinosulfonyl) thiophene-3-carboxamide] yielded an EC50 (CFTR ΔF508 mutant [1]) of 216 nM and an EC50 (CFTR ΔF508 mutant [2]) of 709 nM.

With `CN(C)c1cccc(S(=O)(=O)c2cc(C(N)=O)c(NC(=O)C(C)(C)O)s2)c1` [Compound 292, 5-(3-(dimethylamino)phenylsulfonyl)-2-(2-hydroxy-2-methylpropanamido) thiophene-3-carboxamide] the EC50 (CFTR ΔF508 mutant [1]) was 70 nM, the EC50 (CFTR ΔF508 mutant [3]) was 182 nM and the EC50 (CFTR G551D mutant) was 2280 nM.

Molecule `CC(C)c1ccccc1S(=O)(=O)c1cc(C(N)=O)c(NC(=O)C(C)(C)O)s1` [Compound 293, 2-(2-hydroxy-2-methylpropanamido)-5-(2-isopropylphenylsulfonyl) thiophene-3-carboxamide] has an EC50 (CFTR ΔF508 mutant [1]) of 15.1 nM, an EC50 (CFTR ΔF508 mutant [3]) of 7.6 nM and an EC50 (CFTR G551D mutant) of 110 nM.

In the case of `COc1ccc(F)cc1S(=O)(=O)c1cc(C(N)=O)c(NC(=O)C(C)(C)O)s1` [Compound 295, 5-(5-fluoro-2-methoxyphenylsulfonyl)-2-(2-hydroxy-2-methylpropanamido) thiophene-3-carboxamide], the EC50 (CFTR ΔF508 mutant [1]) is reported as 95.2 nM, the EC50 (CFTR ΔF508 mutant [3]) is reported as 35.6 nM and the EC50 (CFTR G551D mutant) is reported as 1010 nM.

For `CC(C)(O)C(=O)Nc1sc(S(=O)(=O)c2ccccc2CC(F)(F)F)cc1C(N)=O` [Compound 302, 2-(2-hydroxy-2-methylpropanamido)-5-(2-(2,2,2-trifluoroethyl)phenylsulfonyl) thiophene-3-carboxamide], the EC50 (CFTR ΔF508 mutant [1]) was 11.3 nM, the EC50 (CFTR ΔF508 mutant [3]) was 8.1 nM and the EC50 (CFTR G551D mutant) was 307 nM.

`CC(C)(O)C(=O)Nc1sc(S(=O)(=O)c2cc(Cl)ccc2F)cc1C(N)=O` [Compound 303, 5-(5-chloro-2-fluorophenylsulfonyl)-2-(2-hydroxy-2-methylpropanamido) thiophene-3-carboxamide] showed an EC50 (CFTR ΔF508 mutant [1]) of 37.5 nM, an EC50 (CFTR ΔF508 mutant [3]) of 8.5 nM and an EC50 (CFTR G551D mutant) of 1670 nM.

`CN(c1ccc(F)cc1)S(=O)(=O)c1cc(C(N)=O)c(NC(=O)C(C)(C)O)s1` [Compound 304, 5-(N-(4-fluorophenyl)-N-methylsulfamoyl)-2-(2-hydroxy-2-methylpropanamido) thiophene-3-carboxamide] was tested, and the EC50 (CFTR ΔF508 mutant [1]) was 78.5 nM, the EC50 (CFTR ΔF508 mutant [3]) was 109 nM and the EC50 (CFTR G551D mutant) was 3330 nM.

`CN(Cc1ccc(F)cc1)S(=O)(=O)c1cc(C(N)=O)c(NC(=O)C(C)(C)O)s1` [Compound 305, 5-(N-(4-fluorobenzyl)-N-methylsulfamoyl)-2-(2-hydroxy-2-methylpropanamido) thiophene-3-carboxamide] was tested, and the EC50 (CFTR ΔF508 mutant [1]) was 31.5 nM, the EC50 (CFTR ΔF508 mutant [3]) was 23.9 nM and the EC50 (CFTR G551D mutant) was 803 nM.

`CC(C)(O)C(=O)Nc1sc(S(=O)(=O)N2CCOc3ccccc32)cc1C(N)=O` [Compound 307, 5-(2H-benzo[b][1,4]oxazin-4(3H)-ylsulfonyl)-2-(2-hydroxy-2-methylpropanamido) thiophene-3-carboxamide] was tested, and the EC50 (CFTR ΔF508 mutant [1]) was 32.8 nM, the EC50 (CFTR ΔF508 mutant [3]) was 28.5 nM and the EC50 (CFTR G551D mutant) was 793 nM.

For `CC(C)(O)C(=O)Nc1sc(S(=O)(=O)c2ccc3c(c2)OC(F)(F)O3)cc1C(N)=O` [Compound 310, 5-(2,2-difluorobenzo[d][1,3]dioxol-5-ylsulfonyl)-2-(2-hydroxy-2-methylpropanamido) thiophene-3-carboxamide], the EC50 (CFTR ΔF508 mutant [1]) was 42.6 nM, the EC50 (CFTR ΔF508 mutant [3]) was 66.1 nM and the EC50 (CFTR G551D mutant) was 1760 nM.

Molecule `CC(O)C(=O)Nc1sc(S(=O)(=O)c2ccccc2OC(F)(F)F)cc1C(N)=O` (stereo not drawn) [Compound 311, 2-(2-hydroxypropanamido)-5-(2-(trifluoromethoxy)phenylsulfonyl) thiophene-3-carboxamide] has an EC50 (CFTR ΔF508 mutant [1]) of 15.2 nM, an EC50 (CFTR ΔF508 mutant [3]) of 3.5 nM and an EC50 (CFTR G551D mutant) of 607 nM.
